Laboratory results: patent publication US10772827B2, “Composition for treating apoplexy through nasal administration” (INDUSTRY-UNIVERSITY COOPERATION FOUNDATION HANYANG …, priority 2015, dated 2020)
Where no end group is shown, it is not given here.

How the values were obtained:
[1] = rat, in vivo
Description: Intranasal administration of peptides was performed using a pressurized olfactory delivery (POD) device (Impel Neuropharma). Briefly, rats were kept in an isoflurane chamber containing 5% isoflurane for 3 minutes. After the animals were deeply anesthetized, the rats were placed in a supine position for drug injection. A POD tip (Impel Neuropharma) was carefully inserted into a nostril, and then a prefilled 25 μl catheter tube was slowly inserted appropriately 2 cm into the nostril. Thereafter, a peptide solution (PBS) (15 μl of PBS and 500 nM peptide) was slowly injected thereinto. A total of 700 μg of the FTP peptide was intranasally injected 12 hours after MCAO. After intranasal administration, the rats were maintained in the supine position for 5 minutes before they kept back to their designated cage.
A total of 500 μg of FTP was conjugated with Alexa-488 according to the manufacturer's guidelines (Molecular probes, Life Technologies). The Alexa^488 conjugated short peptide was intranasally injected with a final volume of 25 μl into each nostril using a POD device 12 hours after MCAO. After a predetermined period of time, the animals were sacrificed and tissues were excised therefrom. The tissues were washed with cold PBS and surface meninges were removed to avoid auto-fluorescence.

[2] = test system: MCAO rats; assay: Kaplan-Meier survival of MCAO rats; type: in vivo, rat; settings: for rats that died over time: of the 18 rats per group, day 1 until day 5 after reperfusion, FIG. 4H; for animals survived: intranasal delivery
Description: (§1) Briefly, animals were anesthetized with 5% isoflurane. […] Thereafter, the CCA was completely occluded using a clip.
The survival rate of each group of animals was evaluated using a previously described method^[3].

[3] = test system: cleaved caspase-8 and caspase-3; assay: Western blotting of cleaved caspase-8 and caspase-3 in hypoxic Neuro2a cells; type: cell-based, mouse
Description: (§2) Mouse neuroblastoma (Neuro2a, N2a) cells were obtained from ATCC and cultured in Dulbecco's Modified Eagle's Medium (DMEM) containing 10% fetal bovine serum (FBS), penicillin (100 IU/ml), and streptomycin (100 μg/ml). To duplicate an ischemia/reperfusion environment in vitro, the Neuro2a cells were cultured in a 6-well plate and maintained under a hypoxic condition (94% N2, 5% CO2, and 1% O2) in an oxygen glucose deprivation (OGD) medium (Life Technologies) for 24 hours. Subsequently, the cells were re-oxygenated in DMEM supplemented with 10% FBS (5% CO2, 20% O2, 37° C.) for 24 hours.
Neuro2a cells were lysed using a RIPA lysis buffer in the presence of […] phenylmethylsulfonyl fluoride (PMSF) as a protease inhibitor. A total of 50 μg of protein was loaded in a 12% SDS-PAGE gel and transferred onto a nitrocellulose transfer membrane (Whatman). Blots were blocked with 5% skim milk in TBST at room temperature for 2 hours and incubated at 4° C. with primary antibodies (Abcam). After a predetermined period of time, the blots were washed with TBST and incubated for 2 hours with secondary polyclonal antibodies coupled with HRP. After washing the blots three times with TBST, the blots were developed using an ECL western blotting substrate (Promega).

[4] = test system: MCAO rats; assay: Neurological evaluation (deficit grade 0-4) of MCAO rats; type: in vivo, rat
Description: as §1
The neurological deficits of each group of rats with or without peptide treatment were evaluated using a commonly known method^[2]. […] Next, the animals were placed on absorbent pads and tails thereof were pulled to examine their grips power. […] The rats were placed in a sufficiently wide space and allowed to move freely. Grade 3 was given for the case in which rats moved in a circle towards the paralyzed side when tails thereof were pulled. Grade 4 was given for the case in which rats spontaneously moved in a circle under a free environment.

[5] = molecular target: T1, Fas (Mus musculus, UniProt P25446); assay: FTP binding to Fas-expressing hypoxic Neuro2a cells (flow cytometry, confocal microscopy); settings: for binding to Fas-expressing hypoxic cells: hypoxic Neuro2a cells (OGD 24 h)
T1 construct: Neuro2a cells were cultured in an oxygen glucose deprivation (OGD) medium for 24 hour under hypoxic conditions to induce Fas expression; endogenous in cells; host or cells: Neuro2a (mouse neuroblastoma, ATCC), hypoxia/OGD-induced
T1 sequence (P25446 22-327): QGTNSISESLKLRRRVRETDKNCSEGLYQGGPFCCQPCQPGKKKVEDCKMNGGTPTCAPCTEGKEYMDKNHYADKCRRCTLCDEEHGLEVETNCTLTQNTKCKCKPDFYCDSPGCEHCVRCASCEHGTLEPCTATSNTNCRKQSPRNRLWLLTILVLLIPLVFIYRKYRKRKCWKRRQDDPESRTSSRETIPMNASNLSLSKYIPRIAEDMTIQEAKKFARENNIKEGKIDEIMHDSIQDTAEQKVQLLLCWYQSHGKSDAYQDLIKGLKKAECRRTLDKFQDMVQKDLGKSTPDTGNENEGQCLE
Description: as §2
To identify co-localization of a FTP and a Fas receptor, Neuro2a cells were seeded on a cover slip and maintained under a hypoxic condition in an OGD medium for 24 hours. After incubating for 24 hours, the cells were treated with PBS containing 1% BSA and 0.05% Tween 20 and blocked at 37° C. for 2 hours, followed by staining with an anti-Fas antibody (Abcam) and an Alexa647-conjugated FTP at 4° C. for 2 hours. After incubating for 2 hours, the cells were washed three times with PBS containing 0.05% Tween 20, and stained with a secondary antibody (Abcam) at 4° C. for 2 hours under a dark condition. Nuclei of the cells were counterstained with Hoechst 33342 and fixed with an aqueous mounting solution (Abcam). Fluorescence signals in the cells were obtained using a TSP-SP5 confocal microscope (Leika, Germany).

[6] = test system: hypoxia-induced Neuro2a cells; assay: Inhibition of in vitro Fas-mediated apoptosis (PE Annexin V / 7-AAD flow cytometry); type: cell-based, mouse
Description: Mouse neuroblastoma (Neuro2a, N2a) cells were obtained from ATCC and cultured in Dulbecco's Modified Eagle's Medium (DMEM) containing 10% fetal bovine serum (FBS), penicillin (100 IU/ml), and streptomycin (100 μg/ml). To duplicate an ischemia/reperfusion environment in vitro, the Neuro2a cells were cultured in a 6-well plate and maintained under a hypoxic condition (94% N2, 5% CO2, and 1% O2) in an oxygen glucose deprivation (OGD) medium (Life Technologies) for 24 hours. Subsequently, the cells were re-oxygenated in DMEM supplemented with 10% FBS (5% CO2, 20% O2, 37° C.) for 24 hours. To examine an inhibitory effect of a FTP, hypoxia-induced Neuro2a cells were treated with 1,000 μM of a FTP. After incubating for 24 hours, the cells were stained using a PE Annexin V apoptosis detection kit (BD Pharmingen™) according to the manufacturer's instructions.

[7] = test system: MCAO rats; assay: H&E histology of the brain of MCAO rats; type: in vivo, rat; settings: FTP-inoculated group, day 1 to day 5 after reperfusion, FIG. 4F
From the text: as §1
Paraffin-embedded brain sections were de-paraffinized, rehydrated and then subjected to H&E staining according to standard protocols. The H&E stained sections were covered with cover slips and roughly analyzed using an optical microscope.

[8] = molecular target: T1, Fas; assay: Competition assay of a Fas antibody and a FTP on hypoxic Neuro2a cells; type: binding; settings: FIG. 1C
Description: FIG. 1C illustrates the results of a competition assay of a Fas antibody and a FTP, wherein the representative histograms show binding of a Fas antibody to hypoxic cells after treatment with a FTP; data is expressed as mean±SD of three replicated experiments; **P<0.01, ***P<0.001; Normoxia represents cells maintained under normal culture conditions, and Hypoxia represents cells cultured in an OGD medium for 24 hours, followed by re-oxygenation in a serum-containing DMEM medium for 24 hours; and FTP: Fas targeting peptide, Scr-FTP: scrambled peptide.

[9] = test system: MCAO rats; assay: TUNEL analysis of apoptosis in brain sections of MCAO rats; type: in vivo, rat; settings: intranasal FTP, FIG. 4G
Description: as §1
A extent of apoptosis in de-paraffinized and rehydrated brain sections was analyzed through TUNEL analysis using an In Situ Cell Death Detection Kit (Roche, Germany) according to the manufacturer's instructions.

[10] = test system: MCAO rats; assay: TTC staining and measurement of infarct volume in MCAO rats; type: in vivo, rat; settings: 15 mmol I.N. 12 hours after reperfusion
Description: as §1
After a predetermined period of treatment, the brain was immediately removed. The expected area of damage in the brain was sliced into 3 slices (2 mm thick) including a brain matrix and then incubated in 2% 2,3,5-triphenyltetrazolium chloride (TTC, Sigma) at 37° C. for 10 minutes. The brain slices were then fixed in 4% paraformaldehyde and kept at 4° C. for 24 hours until imaging and photographing. The infarct volume was measured using Image J developed by the U.S. National Institute of Health (NIH) and calculated as commonly known.

[11] = molecular target: T2, Fas on hypoxic mouse neuroblastoma Neuro2a cells (mouse, UniProt P25446 22-327); assay: flow cytometry, Alexa488-labeled peptide on hypoxic Neuro2a cells
T2 construct: whole, on cells; also called Fas receptor; Fas-expressing hypoxic cells
T2 sequence (looked up): T1 sequence (P25446 22-327)

[12] = fluorescence-labeled peptide, FIG. 1B
[13] = hypoxic Neuro2a cells, 1,000 μM FTP, FIG. 2B

Molecule: FTP-A^488: FTP conjugated with Alexa-488 for bio-distribution (YCDEHFCY; cysteine pairing not given here; also: conjugated with Alexa-488, position not given here)
- fluorescence signal in other organs [1]: no signal was found
- fluorescence signal in the lungs [1]: slight fluorescence signal
- localization of labeled peptide in the brain [1]: localization of labeled peptides occurred
- retention of labeled peptide in the brain [1]: maintained in the brains of MCAO-treated rats

Molecule: YCNSTVCY [ScrFTP, scrambled peptide used as a control peptide, reference compound]
- rats that died over time [2]: 11 rats
- decrease of cleaved caspase-8 ([3]; FIG. 2C): did not decrease cleaved caspase 8
- progressive effect on behavior after MCAO ([4]; between day 1 and day 5): worsened
- binding to Fas-expressing hypoxic cells [5, 12]: did not bind to the hypoxic cells

Molecule: Scr-A^488: scrambled peptide labeled with Alexa^488 (YCNSTVCY; cysteine pairing not given here; also: labeled with Alexa-488, position not given here) [reference compound]
- fluorescence exposure in the liver and kidneys, Scr-A^488 group versus FTP-A^488 group [1]: much more
- fluorescence signal in other organs [1]: no signal was found
- fluorescence signal in the lungs [1]: slight fluorescence signal
- localization of labeled peptide in the brain [1]: strong localization
- retention of labeled peptide in the brain [1]: not maintained

Molecule: YCDEHFCY [FTP]
- animals survived ([2]; first of three values printed for 1 to 5 days after reperfusion): 90%
- animals survived ([2]; second of three values printed for 1 to 5 days after reperfusion): 80%
- animals survived ([2]; third of three values printed for 1 to 5 days after reperfusion): 80%
- rats that died over time [2]: 2 rats
- decrease of annexin V positive cells [6, 13]: ~50%
- decrease of annexin V/7-ADD positive cells [6, 13]: ~50%
- decrease in 7-AAD positive cells ([6]; hypoxic Neuro2a cells, after FTP treatment): any significant decrease was not observed
- interstitial edema and pyknotic nuclei [7]: started to reduce on day 1 after reperfusion and were alleviated on day 5 thereafter
- decrease of cleaved caspase-3 ([3]; FIG. 2C): 40%
- decrease of cleaved caspase-8 ([3]; FIG. 2C): ~50%
- expression of activated cleaved caspase-8 and activated caspase-3 according to concentration ([3]; no dramatic change at full-length enzyme level, FIG. 3): decreased in a dose-dependent manner
- competitive assay between FTP and α-Fas antibody [8]: bound to different regions of a Fas molecule
- number of apoptotic cells (TUNEL positive cells) ([9]; day 1 after reperfusion): 26%
- number of apoptotic cells (TUNEL positive cells) ([9]; day 5 after reperfusion): 9%
- neurological deficits score compared to the saline-treated group ([4]; FIG. 4I): improved
- neurological functions, average grade ([4]; grade 0-4, first of four values between day 1 and day 5 after reperfusion): 3.3
- neurological functions, average grade ([4]; grade 0-4, fourth of four values between day 1 and day 5 after reperfusion): 1.3
- neurological functions, average grade ([4]; grade 0-4, second of four values between day 1 and day 5 after reperfusion): 2.3
- neurological functions, average grade ([4]; grade 0-4, third of four values between day 1 and day 5 after reperfusion): 2.3
- size of the infarcted area compared to Mock (PBS)- or Scr-FTP-treatment ([10]; as early as day 1 after MCAO): significantly reduced the size of the infarcted area
- infarct volume ([10]; day 1): 26%
- infarct volume ([10]; day 2): 29%
- infarct volume ([10]; day 3): 18%
- infarct volume ([10]; day 5): 7%
- recovery from the infarct ([10]; day 5 after reperfusion): almost completely recovered
- binding to Fas-expressing hypoxic cells [5, 12]: only bound to the Fas-expressing hypoxic cells
- binding to normal cells ([5]; fluorescence-labeled peptide, normal (normoxic) Neuro2a cells, FIG. 1B): die not bind to normal cells
- engagement to Fas-expressing cells, confocal microscopic images ([5]; hypoxic Neuro2a cells, FIG. 2A): strongly engaged to the Fas-expressing cells

B1: scrambled peptide (Scr-FTP) (peptide)
peptide: YCNSTVCY
modifications: cysteine pairing not given here; also: Alexa488 label in binding assays, site not given here
notes: also called scrambled-FTP; Scr-A488
- binding result [11]: no binding
